Entries after “also recorded” stand apart in the source; their conditions may differ.
How the values were obtained:
[1] = system: human mast cell strain HMC-1; test: Degranulation of mast cells induced by variation of oxygen concentration, β-hexosaminidase release; format: cell-based; conditions: 75% O2 24 hours then 20% O2 12 hours, p<0.05
From the text: It has been known that human mast cell strain HMC-1 is a cell strain derived from leukemia, that it has a characteristic as a mast cell, and that it includes β-hexosaminidase in its granules. With reference to a previous report (European Journal of Immunology, Vol. 29, 2645-2649 (1999)), HMC-1 cells were suspended in an α-MEM culture medium to which 10% (v/v) fetal calf serum and a usual dose of antibiotic had been added for preparation of a mast cell suspension with a cell concentration of 5×10^5 cells/ml. Throughout the test period including the period in the high oxygen concentration environment, all the cells were subjected to an environment of 5% (v/v) CO2, 37° C. as the cultivation condition other than the oxygen concentration.
The mast cell suspension was dispensed on a 96-well plate at 4×10^5 cells/well. Cromolyn and each of the seven candidate substances were added to obtain the following concentrations. As controls (media) to which the agent was not added and as non-treated examples to which the marker substance release induction process was not carried out, wells to which neither cromolyn nor the candidate substances was added were set.
The marker substance (β-hexosaminidase) release induction process and the step for contact with the mast cells HMC-1 that had been subjected to the marker substance release induction process were performed by retaining the 96-well plate in the high oxygen concentration environment (75 v/v % oxygen) for 24 hours and in the normal oxygen environment (20 v/v % oxygen) for 12 hours. For the non-treated example, the 96-well plate was retained in the normal oxygen environment (20 v/v % oxygen) for 24 hours and further retained in the normal oxygen environment for 12 hours.
The detection and measurement of the marker substance (β-hexosaminidase) that had been released by degranulation of the mast cells in the contacting step were carried out by a previously reported method (Eur. J. Immunol. 19 (1989) 2251-2256). To put it briefly, the step was carried out in the following manner. After having collecting the supernatant from the respective wells after the contacting step, the pellets (cells) were dissolved in a 0.5% triton X-100-containing α-minimal essential medium (α-MEM: a product of Gibco) at the same volume. In the respective wells of the 96-well plate, 5 μl supernatant or cell lysates were mixed with a 50 μl substrate solution (1.3 mg/ml p-nitrophenyl-N-acetyl-β-D-glucosamine;
pH 4.5 in 100 mM sodium citrate). After incubation at 37° C. for 60 minutes, 150 μl, 200 mM solution of glycine (pH 10.7) was added, and the reaction was stopped. The absorbance was measured at 414 nm. The (%) of the released marker substance (β-hexosaminidase) was calculated according to the following expression; OD(supernatant)/(OD(supernatant).+OD(pellet))×100.
The test was performed by three-sample test, an average and standard deviation were calculated on the basis of the measurement results for statistic analysis by ANOVA+ Tukey's test.

[2] = system: retinal neovascularization; test: Influence of cromolyn on retinal neovascularization in oxygen-induced ROP model mice; format: in vivo; conditions: eyes on P17
From the text: As have been reported before (Invest. Ophthalmol. Vis. Sci., 35, 101-111 (1994), etc.), for the +/+ mice, +/W^sh mice, and W^sh/W^sh mice, respectively, neonatal mice were placed in a closed chamber containing 75 v/v % O2 together with their mother for lactation on P7, and this state was maintained for 5 days (P7-P12). Subsequently, this state was continued for further 5 days (P12-P17) in the normal oxygen environment (21 v/v % O2) for induction of oxygen-induced retinopathy (OIR) for use as experimental ROP models. The control mice were raised in the normal oxygen environment (indoor environment, 25° C., 21 v/v % O2. The same applies for the description of Examples.) throughout the test period. Note that the symbol “P”, which refers to a date, herein denotes that the date is a postnatal date, and “P7”, for example, refers to a 7th postnatal date. On P17, eyes were collected from the mice with ROP, fixed with Davidson's fixative overnight, and then embedded with paraffin. Paraffin-embedded serial sections axially sectioned at 6 μm were obtained, stained with HE, images were taken at the magnification 20, and the number of nuclei of the endothelial cells on the side of the vitreous body of the internal limiting membrane was counted. In the immunohistochemical test, the sections were subjected to incubation at 4° C. overnight together with anti-PECAM-1 antibody (a product of Santa Cruz Biotechnology, Inc.) having been diluted at 1:100 (in capacity ratio). To examine an influence in various states of different oxygen concentration, mice for use in the tests were raised in a period from P0 to P17 according to the schedule in which the normal oxygen environment was used in the period P0-P7 (21 v/v % oxygen), the high oxygen concentration environment in the period P7-P12 (75 v/v % oxygen), and the normal oxygen environment in the period P12-P17. On P7 and P12, the oxygen concentration environment was replaced. The neonatal mice of +/+ mice and the W^sh/W^sh mice were divided into three groups, and cromolyn (a product of Sigma Aldrich Corporation) dissolved in phosphate buffered saline (PBS) was injected to the mice at the concentration of 50 mg/kg/20 μL intraperitoneally every day. PBS was administered to the control group at the same volume. Administration methods of the agent for the respective groups were as illustrated in FIG. 5. Specifically, for the first group, cromolyn was administered to the neonatal mice from P6 to P16. […] Subsequently, similarly to Reference Example 1, the number of nuclei of the endothelial cell was counted after staining the ocular sections by HE, and thereby influences of cromolyn on the retinal neovascularization in the +/+ and W^sh/W^sh neonatal mice was evaluated in the similar manner as Reference Example 1.

[3] = system: retinal neovascularization; test: Influence of nafamostat mesilate (NM) on retinal neovascularization in ROP model mice; format: in vivo; conditions: 1 mg/kg intraperitoneally every day P12-P17
Method: For the ROP models, the BMCMC-injected W^sh/W^sh mice produced in Reference Example 2 (administered by an amount of 1×10^6 cells/20 μL) were used, and W^sh/W^sh mice to which saline was administered by the same volume were used as the control group. The oxygen concentration for the period P0-P17 was replaced by the same schedule as Example 1 (see FIG. 7). 1 mg/kg/20 μl NM dissolved in saline or saline was injected to the mice intraperitoneally in the period P12-P17 every day. On P17, the mice were slaughtered and eyes are collected, and evaluation of neovascularization was performed in the similar manner as Example 1. The results are illustrated in FIG. 8. In FIG. 8 the sign “*” denotes P<0.05 (compared with the number of nuclei of the endothelial cells of the vessels of the control mice).

Compound: CCOCC(O)COc1ccc(NC(=O)CC[S+](C)C)cc1 (stereo not drawn) [suplatast]
- degranulation (ratio of released β-hexosaminidase) compared with controls (media) ([1]; 10 μM suplatast): inhibited the degranulation

Compound: O=C(O)c1cc(=O)c2c(OCC(O)COc3cccc4oc(C(=O)O)cc(=O)c34)cccc2o1 [cromolyn, cromoglycic acid]
- retinal neovascularization (number of nuclei of the endothelial cell, HE-stained ocular sections) ([2]; +/+ mice, first group: 50 mg/kg intraperitoneally every day P6-P16): a level as low as that in the W^sh/W^sh mice; also recorded: decreased pathological neovascularization
- retinal neovascularization (number of nuclei of the endothelial cell, HE-stained ocular sections) ([2]; +/+ mice, third group: 50 mg/kg intraperitoneally every day P11-P16): a level as low as that in the W^sh/W^sh mice; also recorded: significantly small; also recorded: less than those in the W^sh/W^sh mice
- retinal neovascularization (number of nuclei of the endothelial cell, HE-stained ocular sections) ([2]; second group: 50 mg/kg intraperitoneally every day P6-P11 (high oxygen period)): did not influence; also recorded: no effect of inhibition
- retinal neovascularization (number of nuclei of the endothelial cell, HE-stained ocular sections) ([2]; second group: 50 mg/kg intraperitoneally every day P6-P11 (high oxygen period), listed as Cromolyn): did not influence
- degranulation (ratio of released β-hexosaminidase) compared with controls (media) ([1]; 10 ng/ml): inhibited the degranulation

Compound: NC1=NCC2c3ccccc3Cc3ccccc3N12 (stereo not drawn) [epinastine]
- degranulation (ratio of released β-hexosaminidase) compared with controls (media) ([1]; 1 ng/ml): inhibited the degranulation

Compound: Cc1cccn2c(=O)c(-c3nnn[nH]3)cnc12 [pemirolast]
- degranulation (ratio of released β-hexosaminidase) compared with controls (media) ([1]; 10 nM pemirolast): inhibited the degranulation

Compound: CC(C)c1ccc2oc3nc(N)c(C(=O)O)cc3c(=O)c2c1 [amlexanox]
- degranulation (ratio of released β-hexosaminidase) compared with controls (media) ([1]; 1 μM amlexanox): inhibited the degranulation

Compound: C[C@@H]1CN([C@H]2CC[C@](C#N)(c3ccc(F)cc3)CC2)CC[C@]1(C(=O)O)c1ccccc1 [levocabastine]
- degranulation (ratio of released β-hexosaminidase) compared with controls (media) ([1]; 10 nM levocabastine): inhibited the degranulation

Compound: N=C(N)c1ccc2cc(OC(=O)c3ccc(N=C(N)N)cc3)ccc2c1 [NM, nafamostat mesilate]
- retinal neovascularization (neovascular nuclei) ([3]; +/+ mice with induced ROP): inhibited retinal neovascularization
- retinal neovascularization (neovascular nuclei) ([3]; BMCMC-injected W^sh/W^sh mice with induced ROP): inhibited retinal neovascularization
